In publication PMC2579691, “Safety and pharmacokinetics of motesanib in combination with gemcitabine for the treatment of patients with solid tumours” (British Journal of Cancer, 2008):
pIC50: −log10 of the molar value.

Key:
CYP3A4 = tested on: CYP3A4; set-up: method as in Shipley et al, 1992; Mini et al, 2006; details: ref Shipley et al, 1992; Mini et al, 2006; cited from earlier work
[1] = plasma pharmacokinetics of gemcitabine in patients (phase 1b); details: for Tmax: h (range)
advanced solid tumours = experiment: best tumour response per modified RECIST; assay type: in vivo, human; details: for Confirmed complete response, n (%) / Confirmed objective response, % (95% CI) / Confirmed partial response, n (%) / Progressive disease, n (%) / Stable disease, n (%): with gemcitabine 1000 mg m^−2
Procedure: Computed tomography (CT) or magnetic resonance imaging (MRI) for tumour assessments were performed at baseline and at 12-week intervals, or as clinically indicated. In patients with baseline measurable disease tumour response per modified RECIST ([Therasse et al, 2000]) was assessed by the investigator. Complete and partial responses were confirmed using CT or MRI scans no less than 28 days after the initial response.

[2] = human, in vivo
[3] = human, in vivo; remark: listed apart in the source
VEGFR1 = tested on: VEGFR1; set-up: method as in Polverino et al, 2006; details: ref Polverino et al, 2006; cited from earlier work
VEGFR3 = tested on: VEGFR3; set-up: method as in Polverino et al, 2006; details: ref Polverino et al, 2006; cited from earlier work
PDGFR = tested on: PDGFR; set-up: method as in Polverino et al, 2006; details: ref Polverino et al, 2006; cited from earlier work
Kit = tested on: Kit; set-up: method as in Polverino et al, 2006; details: ref Polverino et al, 2006; cited from earlier work
[4] = tested on: human umbilical vein endothelial cell (HUVEC) proliferation; details: in vitro, cited from earlier work
[5] = set-up: method as in Rosen et al, 2007; details: motesanib monotherapy, first-in-human study; ref Rosen et al, 2007; cited from earlier work
clinical = details: human, in vivo
[6] = dose-limiting toxicities and adverse events in patients (phase 1b)

Nc1ccn([C@@H]2O[C@H](CO)[C@@H](O)C2(F)F)c(=O)n1 [gemcitabine]
metabolism by CYP3A4 (CYP3A4): not metabolised by CYP3A4 | effect of motesanib coadministration on pharmacokinetics ([1]; combination therapy): not markedly affected | AUC(0-t) ([1]; human, plasma, intravenous, 1000 mg m^−2, AUC0–2, week 1, range across motesanib dose groups): 4.72 to 6.27 µg·h/mL | AUC(0-t) ([1]; human, plasma, intravenous, AUC0–2, week 2, range across motesanib dose groups): 6.56 to 7.92 µg·h/mL | Cmax ([1]; human, plasma, iv, 1000 mg m^−2): 9.72 µg/mL | AUC(0-t) ([1]; human, plasma, iv, 1000 mg m^−2, AUC0–2, μg h ml^−1 (s.d.), gemcitabine 1000 mg m^−2 i.v. alone (week 1, day 1), motesanib 50 mg QD cohort): 5.21 µg·h/mL | AUC(0-t) ([1]; human, plasma, iv, 1000 mg m^−2, AUC0–2, μg h ml^−1 (s.d.), gemcitabine 1000 mg m^−2 i.v. alone (week 1, day 1), motesanib 75 mg BID cohort): 6.27 µg·h/mL | AUC(0-t) ([1]; human, plasma, iv, 1000 mg m^−2, AUC0–2, μg h ml^−1 (s.d.), gemcitabine 1000 mg m^−2 i.v. alone (week 1, day 1), motesanib 125 mg QD cohort): 4.72 µg·h/mL | concentration at 2 h ([1]; human, plasma, iv, 1000 mg m^−2, C2, ng ml^−1 (s.d.), gemcitabine 1000 mg m^−2 i.v. alone (week 1, day 1), motesanib 50 mg QD cohort): 0.104 µg/mL | concentration at 2 h ([1]; human, plasma, iv, 1000 mg m^−2, C2, ng ml^−1 (s.d.), gemcitabine 1000 mg m^−2 i.v. alone (week 1, day 1), motesanib 75 mg BID cohort): 0.101 µg/mL | concentration at 2 h ([1]; human, plasma, iv, 1000 mg m^−2, C2, ng ml^−1 (s.d.), gemcitabine 1000 mg m^−2 i.v. alone (week 1, day 1), motesanib 125 mg QD cohort): 0.088 µg/mL | Tmax ([1]; human, plasma, iv, 1000 mg m^−2, tmax, gemcitabine 1000 mg m^−2 i.v. alone (week 1, day 1), motesanib 50 mg QD cohort): 0.5 h | Tmax ([1]; human, plasma, iv, 1000 mg m^−2, tmax, gemcitabine 1000 mg m^−2 i.v. alone (week 1, day 1), motesanib 75 mg BID cohort): 0.5 h | Tmax ([1]; human, plasma, iv, 1000 mg m^−2, tmax, gemcitabine 1000 mg m^−2 i.v. alone (week 1, day 1), motesanib 125 mg QD cohort): 0.38 h | AUC(0-t) ([1]; human, plasma, iv, AUC0–2, μg h ml^−1 (s.d.), gemcitabine 1000 mg m^−2 i.v. in combination with motesanib 50 mg QD (week 2, day 1)): 7.92 µg·h/mL | AUC(0-t) ([1]; human, plasma, iv, AUC0–2, μg h ml^−1 (s.d.), gemcitabine 1000 mg m^−2 i.v. in combination with motesanib 75 mg BID (week 2, day 1)): 7.09 µg·h/mL | AUC(0-t) ([1]; human, plasma, iv, AUC0–2, μg h ml^−1 (s.d.), gemcitabine 1000 mg m^−2 i.v. in combination with motesanib 125 mg QD (week 2, day 1)): 6.56 µg·h/mL | concentration at 2 h ([1]; human, plasma, iv, C2, ng ml^−1 (s.d.), gemcitabine 1000 mg m^−2 i.v. in combination with motesanib 50 mg QD (week 2, day 1)): 0.183 µg/mL | concentration at 2 h ([1]; human, plasma, iv, C2, ng ml^−1 (s.d.), gemcitabine 1000 mg m^−2 i.v. in combination with motesanib 75 mg BID (week 2, day 1)): 0.234 µg/mL | concentration at 2 h ([1]; human, plasma, iv, C2, ng ml^−1 (s.d.), gemcitabine 1000 mg m^−2 i.v. in combination with motesanib 125 mg QD (week 2, day 1)): 0.133 µg/mL | Tmax ([1]; human, plasma, iv, tmax, gemcitabine 1000 mg m^−2 i.v. in combination with motesanib 50 mg QD (week 2, day 1)): 0.5 h | Tmax ([1]; human, plasma, iv, tmax, gemcitabine 1000 mg m^−2 i.v. in combination with motesanib 75 mg BID (week 2, day 1)): 0.5 h | Tmax ([1]; human, plasma, iv, tmax, gemcitabine 1000 mg m^−2 i.v. in combination with motesanib 125 mg QD (week 2, day 1)): 0.25 h | increase of mean Cmax and AUC in week 2 compared with week 1 ([1]; same patients, all motesanib dose groups): < 2 fold

CC1(C)CNc2cc(NC(=O)c3cccnc3NCc3ccncc3)ccc21 [motesanib]
Confirmed complete response, n (%) (advanced solid tumours; 50 mg QD cohort (n=11)): 0 (0) n (%) | Confirmed objective response, % (95% CI) (advanced solid tumours; 50 mg QD cohort (n=11)): 0 (0.0–28.5) % | Confirmed partial response, n (%) (advanced solid tumours; 50 mg QD cohort (n=11)): 0 (0) n (%) | Progressive disease, n (%) (advanced solid tumours; 50 mg QD cohort (n=11)): 7 (64) n (%) | Stable disease, n (%) (advanced solid tumours; 50 mg QD cohort (n=11)): 4 (36) n (%) | Confirmed complete response, n (%) (advanced solid tumours; 75 mg BID cohort (n=9)): 0 (0) n (%) | Confirmed objective response, % (95% CI) (advanced solid tumours; 75 mg BID cohort (n=9)): 0 (0.0–33.6) % | Confirmed partial response, n (%) (advanced solid tumours; 75 mg BID cohort (n=9)): 0 (0) n (%) | Progressive disease, n (%) (advanced solid tumours; 75 mg BID cohort (n=9)): 2 (22) n (%) | Stable disease, n (%) (advanced solid tumours; 75 mg BID cohort (n=9)): 1 (11) n (%) | Confirmed complete response, n (%) (advanced solid tumours; 125 mg QD cohort (n=6)): 0 (0) n (%) | Confirmed objective response, % (95% CI) (advanced solid tumours; 125 mg QD cohort (n=6)): 17 (0.4–64.1) % | Confirmed partial response, n (%) (advanced solid tumours; 125 mg QD cohort (n=6)): 1 (17) n (%) | Progressive disease, n (%) (advanced solid tumours; 125 mg QD cohort (n=6)): 3 (50) n (%) | Stable disease, n (%) (advanced solid tumours; 125 mg QD cohort (n=6)): 2 (33) n (%) | objective response rate (advanced solid tumours; all patients (1 of 26), with gemcitabine): 4% | patients who achieved stable disease (advanced solid tumours; all patients (7 of 26), with gemcitabine): 27% | Confirmed complete response, n (%) (advanced solid tumours; all patients (n=26)): 0 (0) n (%) | Confirmed objective response, % (95% CI) (advanced solid tumours; all patients (n=26)): 4 (0.1–19.6) % | Confirmed partial response, n (%) (advanced solid tumours; all patients (n=26)): 1 (4) n (%) | Progressive disease, n (%) (advanced solid tumours; all patients (n=26)): 12 (46) n (%) | Stable disease, n (%) (advanced solid tumours; all patients (n=26)): 7 (27) n (%) | durable stable disease ⩾24 weeks (advanced solid tumours; all patients, with gemcitabine): No patients | patients with progressive disease as best response (advanced solid tumours; all patients, with gemcitabine): 12 of 26 | decrease of Cmax (except 125 mg QD, week 1) and AUC vs motesanib monotherapy study [2]: < 50% | tmax, h (range) [2]: 0.5 (0.25–6.0) h | mean C24 relative to in vitro IC90 of HUVEC proliferation ([2]; 24 h): […] | cases of cholecystitis [3]: No cases of cholecystitis occurred | motesanib-related diarrhoea [3]: 4 n | motesanib-related fatigue [3]: 3 n | motesanib-related headache [3]: 3 n | motesanib-related lethargy [3]: 6 n | motesanib-related nausea [3]: 3 n | patients with motesanib treatment-related adverse events [3]: 62% | pIC50 (VEGFR1): […] | pIC50 (VEGFR3): […] | pIC50 (PDGFR): 7.08 | pIC50 (Kit): […] | IC90 of HUVEC proliferation ([4]; ref Amgen Inc., data on file): 0.028 mg/L | IC50 of HUVEC proliferation ([4]; ref Polverino et al, 2006): 0.004 mg/L | maximum-tolerated dose [5]: 125 mg QD | AUC(0-inf) (clinical; 125 mg): 1.7 µg·h/mL | AUC(0-t) (clinical; 125 mg): 1.9 µg·h/mL | Cmax (clinical; 125 mg): 0.421 µg/mL | concentration at 24 h (clinical; 125 mg): 0.0069 µg/mL | half-life (clinical; 125 mg, t1/2,z, h (s.d.), motesanib 125 mg QD, after single-dose (week 1, day 2), mean (s.d.)): 3.8 h | Tmax (clinical; 125 mg, tmax, h (range), motesanib 125 mg QD, after single-dose (week 1, day 2), median (range)): 1.5 h | half-life (clinical; mean t1/2,z, after multiple-dose administration in combination with gemcitabine, range over cohorts): 4.3 to 5 h | half-life (clinical; mean t1/2,z, after single-dose administration, range over cohorts): 3.8 to 5.7 h | Tmax (clinical; overall median tmax, after multiple-dose administration in combination with gemcitabine, range over cohorts): 0.83 to 2 h | Tmax (clinical; po, overall median tmax, after single-dose oral administration, range for all three dose cohorts): 0.5 to 1.5 h | half-life (clinical; t1/2,z, h (s.d.)): 5.65 h | half-life (clinical; t1/2,z, h (s.d.), motesanib 125 mg QD, after multiple-dose with gemcitabine (week 2, day 1), mean (s.d.)): 4.6 h | Tmax (clinical; tmax, h (range)): 0.57 h | Tmax (clinical; tmax, h (range), motesanib 125 mg QD, after multiple-dose with gemcitabine (week 2, day 1), median (range)): 2 h | deaths during the study ([6]; all patients, all deaths unrelated to motesanib treatment): Three patients died | target once-daily dose (maximum target dose) ([6]; in combination with gemcitabine 1000 mg m^−2): 125 mg QD
